The structures appear in SMILES notation.

The target in the first assay is T1, Syk kinase (Homo sapiens, UniProt P43405).
T1 construct: purchased
In words: Syk kinase inhibition, Caliper LabChip off-chip mobility-shift kinase assay. It counts as biochemical. The following applies: Caliper LabChip assay; read-out: Syk Enzyme IC50. In short, it runs like this: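 Purified Syk pre-incubated 15 min with compound in 100 mM HEPES pH 7.5, 1 mM DTT, 10 mM MgCl2 or MnCl2, 0.002% Brij-35, then 1.5 μM fluorescein peptide and ATP at apparent KM added; 1–1.5 h at room temperature, 4% DMSO, EDTA stop. Microfluidic mobility-shift product/substrate conversion gave % inhibition; IC50 from 12-point series (10–0.00003 μM) by 4-parameter fit.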
Consider `CC(C)(C)Nc1nc(Nc2cnccn2)cc2cc[nH]c(=O)c12` [compound 679], for which the IC50 worked out at 12 nM. Take `O=c1c2c(N[C@H]3CC[C@@H](O)CC3)nc(Nc3cnccn3)cc2ccn1CCCO` [compound 948]: the IC50 came out at 18 nM. On the same count and under the same terms, with `CC(C)(C)Nc1nc(-c2cnc(N)nc2)cc2ccn(CCS(C)(=O)=O)c(=O)c12` [compound 737] the figure was 20 nM; with `CC(C)(C)Nc1nc(Nc2cc(CO)ncn2)cc2ccn(CCO)c(=O)c12` [Compound No. 607, 8-(tert-butylamino)-2-(2-hydroxyethyl)-6-(6-(hydroxymethyl)pyrimidin-4-ylamino)-2,7-naphthyridin-1(2H)-one], 29 nM; with `CC(C)n1ccc2cc(Nc3c[n+]([O-])ccn3)nc(N[C@H]3CC[C@@H](CO)C3)c2c1=O` [compound 1018], 13 nM. The same measure, in the same setting: the value for `CC(C)(C)Nc1nc(Nc2cc(C(=O)O)ccn2)cc2ccn(CCO)c(=O)c12` [compound 680] was 643 nM; that for `Cc1ccnc(Nc2cc3ccn(CCCO)c(=O)c3c(N[C@H]3CC[C@@H](O)CC3)n2)c1` [compound 947] was 19 nM; that for `O=c1c2c(N[C@H]3CC[C@@H](O)CC3)nc(Nc3cnccn3)cc2ccn1Cc1ccncc1` [compound 1024] was 174 nM. For `CCn1ccc2cc(Nc3cnccn3)nc(NC3(CO)CC3)c2c1=O` [compound 797], the IC50 is 106 nM. Still for that read-out and setting: with `CN(C)CCNC(=O)c1ccnc(Nc2cc3ccn(CCO)c(=O)c3c(NC(C)(C)C)n2)c1` [compound 683] the figure was 595 nM; with `CCn1ccc2cc(Nc3cnccn3)nc(NS(C)(=O)=O)c2c1=O` [compound 745], 69 nM. The same measure, in the same setting: the value for `[2H]C([2H])([2H])n1ccc2cc(Nc3cc(Cl)ccn3)nc(NC(C)(C)CO)c2c1=O` [compound 786] was 71 nM; that for `CCn1ccc2cc(Nc3cc(C)ccn3)nc(NCC(O)C(F)(F)F)c2c1=O` (stereo not shown) [compound 778] was 413 nM. Same read-out and setting: the value for `CC(C)(C)Nc1nc(Nc2ccc(C#N)cn2)cc2ccn(CCO)c(=O)c12` [compound 697] was 208 nM; that for `NC(=O)Cn1ccc2cc(Nc3cnccn3)nc(NC3CCC3)c2c1=O` [compound 754] was 12 nM; that for `Cn1ccc2cc(Nc3nccc(O)n3)nc(N[C@H]3CC[C@@H](O)CC3)c2c1=O` [compound 798] was 128 nM.

In the case of `CC(C)(C)Nc1nc(Nc2cc(C(C)(C)C)ccn2)cc2ccn(CCO)c(=O)c12` [compound 616], the IC50 is 1350 nM. The same measure, in the same setting: the value for `CC(C)(C)Nc1nc(Nc2cc(C(C)(C)O)ncn2)cc2ccn(CCO)c(=O)c12` [compound 716] was 35 nM; that for `CC1(Nc2nc(-c3cnc(N)nc3)cc3ccn(CC4(CO)COC4)c(=O)c23)CCC1` [compound 933] was 25 nM. On the same count and under the same terms, the value for `N#CCn1ccc2cc(-c3cnc(N)nc3)nc(NC3CCOCC3)c2c1=O` [compound 742] was 34 nM; that for `CC(C)(C)Nc1nc(Nc2cc(C(C)(C)O)ncn2)cc2ccn(C(CO)CO)c(=O)c12` [compound 741] was 22.2 nM; that for `CC(C)(C)Nc1nc(Nc2cnccn2)cc2ccn(C3COC3)c(=O)c12` [compound 1014] was 120 nM.

Regarding `CC(C)(C)Nc1nc(Nc2cc(C3(CO)CC3)ccn2)cc2ccn(CCO)c(=O)c12` [compound 860], the IC50 was 28 nM.

For the compound `C[C@@H](O)c1ccnc(Nc2cc3ccn(CCO)c(=O)c3c(NC(C)(C)C)n2)c1` [compound 713], the half-maximal inhibitory concentration (IC50) came out at 3 nM.

The assay is the same for the next values; noted with them: read-out: Syk Enzyme IC50.
Regarding `Cc1n[nH]c2ncc(-c3cc4cc[nH]c(=O)c4c(Nc4ccc(N5CCOCC5)cc4)n3)cc12` [compound 192], the IC50 amounted to 263 nM. The same measure, in the same setting: the value for `CNC(=O)c1ccc(Nc2nc(Nc3cc(C)ccn3)cc3ccn(C)c(=O)c23)cc1` [compound 342] was 222 nM. The same measure, in the same setting: with `CCNC(=O)C(C)N1CCC(c2ccc(Nc3nc(-c4cncc(OC)n4)cc4cc[nH]c(=O)c34)cc2C)CC1` (stereo not shown) [compound 120] the figure was 23 nM; with `CC(C)Nc1nc(-c2cnc(N)nc2)cc2ccn(CCO)c(=O)c12` [compound 32], 140 nM.

For the compound `Cc1ccnc(Nc2cc3cc[nH]c(=O)c3c(NC3CCC3)n2)c1` [compound 485], the IC50 was found to be 45 nM. For the compound `CCNC(=O)c1ccc(Nc2nc(Nc3cc(C)ccn3)cc3ccn(C)c(=O)c23)cc1` [compound 380], the IC50 was found to be 379 nM. Take `COCCCNc1nc(Nc2cc(C)ccn2)cc2cc[nH]c(=O)c12` [compound 281]: the IC50 amounted to 87 nM. On the same count and under the same terms, with `O=c1c2c(N[C@H]3CC[C@@H](O)CC3)nc(Nc3cnccn3)cc2ccn1CCO` [compound 376] the figure was 6 nM; with `O=c1[nH]ccc2cc(-c3cnccn3)nc(Nc3ccc4c(c3)C3CNCC4C3)c12` (stereo not shown) [compound 98], 1520 nM. For the compound `O=C(N1CC2CC(C1)c1cc(Nc3nc(-c4cnccn4)cc4cc[nH]c(=O)c34)ccc12)C(F)(F)F` (stereo not shown) [compound 97], the IC50 was found to be 2500 nM. Same read-out and setting: the value for `Cc1ccnc(Nc2cc3cc[nH]c(=O)c3c(NCC3CC3)n2)c1` [compound 285] was 201 nM. Regarding `Cc1ncc(-c2cc3cc[nH]c(=O)c3c(Nc3ccc(C4CCC(N(C)C)CC4)cc3)n2)cn1` (stereo not shown) [compound 106], the IC50 was determined as 67 nM. Same read-out and setting: the value for `CC[C@H](CO)Nc1nc(Nc2cnccn2)cc2ccn(CC)c(=O)c12` [compound 457] was 302 nM; that for `COCC(C)N1CCC(c2ccc(Nc3nc(-c4cncc(OC)n4)cc4cc[nH]c(=O)c34)cc2C)CC1` (stereo not shown) [compound 174] was 14 nM. Regarding `[2H]C([2H])([2H])n1ccc2cc(Nc3cc(C)c(F)cn3)nc(NC(C)(C)C)c2c1=O` [compound 531], the IC50 stood at 296 nM. On the same count and under the same terms, the value for `C[C@@H](CO)Nc1nc(Nc2ccccn2)cc2cc[nH]c(=O)c12` [compound 298] was 155 nM; that for `Cc1ccnc(Nc2cc3cc[nH]c(=O)c3c(NCCc3cccnc3)n2)c1` [compound 284] was 166 nM; that for `CCN(CC)CCNC(=O)c1ccc(Nc2nc(Nc3cnccn3)cc3ccn(C)c(=O)c23)cc1` [compound 338] was 1620 nM. `Cn1ccc2cc(Nc3cnccn3)nc(NCCCO)c2c1=O` [compound 474]: the IC50 came to 140 nM. Same read-out and setting: the value for `[2H]C([2H])([2H])n1ccc2cc(Nc3cnccn3)nc(NC3CC3)c2c1=O` [compound 467] was 49 nM; that for `Cc1ccnc(Nc2cc3ccn(C)c(=O)c3c(Nc3ccc(C4CCN(C)CC4)cc3)n2)c1` [compound 309] was 16 nM. On the same count and under the same terms, with `O=c1c2c(NCC(F)(F)F)nc(Nc3cnccn3)cc2ccn1CCO` [compound 456] the figure was 21.5 nM; with `O=c1[nH]ccc2cc(Nc3ccccn3)nc(N3CCOCC3)c12` [compound 286], 951 nM.

As for `CNC(=O)C(C)(C)c1ccc(Nc2nc(-c3cnc4nccn4c3)cc3cc[nH]c(=O)c23)cc1` [compound 29], the IC50 turned out to be 30 nM. The same measure, in the same setting: with `Nc1ncc(-c2cc3cc[nH]c(=O)c3c(NC[C@@H](O)c3cccc(Cl)c3)n2)cn1` [compound 449] the figure was 384 nM.

As for `Cc1ccc(Nc2cc3cc[nH]c(=O)c3c(Nc3ccc(CCN4CCCN(C)CC4)cc3)n2)nc1` [compound 552], the IC50 is 390 nM.

As for `CC(C)Nc1nc(Nc2cnccn2)cc2ccn(C)c(=O)c12` [compound 347], the IC50 is 57 nM. For `COCCN1CCC(c2ccc(Nc3nc(-c4cnc5nccn5c4)cc4cc[nH]c(=O)c34)cc2C)CC1` [compound 30], the IC50 came to 8 nM.
